From US20240025893A1, “PYRIMIDINE-AND NITROGEN-CONTAINING BICYCLIC COMPOUND” (Asahi Kasei Pharma Corporation, priority 2020, published 2024)

What was measured:
[1] = tested on: LPS-stimulated TNFα production in THP-1 cells; experiment: LPS-stimulated TNFα production inhibition test using human acute monocytic leukemia cell strain THP-1; type: cell-based; conditions: Homo sapiens, LPS 2.5 ng/mL, average values
Procedure: By the THP-1 assay, influence of a test compound on the TNFα production induced by LPS stimulation can be evaluated. The THP-1 cells (ATCC, Cat. TIB-202) were inoculated on a 96-well plate at a density of 1×10^5 cells/160 μL/well, a test compound was added in a volume of 20 μL, and the plate was incubated at 37° C. for 1 hour in a 5% CO2 incubator. Then, LPS in a volume of 20 μL (final concentration 2.5 ng/mL, Sigma, Cat. L2630) was added, and the plate was further incubated for 4 hours. After the incubation, the plate was centrifuged, and 100 μL of the supernatant was taken from each well, and used for evaluation of the amount of TNFα using HTRF (Cisbio, Cat. 62TNFPEB). In the measurement of the amount of TNFα, the supernatant was diluted twice with the medium, and then added to wells of a 384-well plate in a volume of 10 μL, then anti-TNFα-cryptate (5 μL), and anti-TNFα-XL665 (5 μL) were added, and the plate was left standing overnight. The fluorescence intensity ratio for the wavelengths of 620 and 665 nm (620 nm/665 nm) was measured with a microplate reader, and the amount of TNFα in the supernatant was calculated by using a calibration curve. The TNFα production suppression ratio observed with no addition of LPS was defined to be 100%, the TNFα production suppression ratio observed with no addition of the test compound was defined to be 0%, and IC50 of the test compound was calculated by using the 4-parameter logistic model of the data analysis software XLfit (ID Business Solutions Ltd.).

human IRAK-4 = human IRAK-4 (Homo sapiens (Human), UniProt Q9NWZ3); experiment: Measurement of human IRAK-4 inhibitory activity (TR-FRET, peptide substrate phosphorylation, 10 μM ATP); type: biochemical; conditions: 1 nM IRAK-4, 10 μM ATP, 23° C., 30 minutes; average values
Procedure: For the measurement of the activity of the human IRAK-4 (Invitrogen, Cat. PV3362), phosphorylation of the IRAK-4 peptide substrate (biotin-KKKKRFSFKKSFKC) by the enzyme in the presence of 10 μM ATP (Sigma-Aldrich, Cat. A7699) was measured by the TR-FRET method. The enzymatic reaction was performed in a reaction buffer containing 50 mM HEPES (pH 7.2), 1 mM DTT, 0.1 mM Na3VO4, 5 mM MgCl2, 1 mM MnCl2, and 0.1% bovine serum albumin. For the measurement of the IRAK-4 inhibitory activity, a test compound was added to the reaction buffer containing 1 nM IRAK-4, 0.5 μM peptide substrate, and 10 μM ATP, and the mixture was incubated at 23° C. for 30 minutes. Then, a detection solution containing an antibody labeled with europium cryptate (0.3 μg/mL, the antibody was prepared by using the IRAK-4 peptide substrate as the antigen), streptavidin-XL665 (2 μg/mL, CisBio, Cat. 610SAXLB), 50 mM HEPES (pH 7.2), 0.1% BSA, 120 mM KF, and 66.7 mM EDTA (all the concentrations of the reagents are final concentrations) was added to terminate the reaction, and then the mixture was further incubated at 23° C. for 60 minutes. Fluorescence intensity was measured at wavelengths of 665 nm and 620 nm with a microplate reader, and the enzymatic activity was calculated as the ratio of fluorescence intensities at 665 nm and 620 nm (665 nm/620 nm).

Chain of human IRAK-4 (Q9NWZ3 whole entry): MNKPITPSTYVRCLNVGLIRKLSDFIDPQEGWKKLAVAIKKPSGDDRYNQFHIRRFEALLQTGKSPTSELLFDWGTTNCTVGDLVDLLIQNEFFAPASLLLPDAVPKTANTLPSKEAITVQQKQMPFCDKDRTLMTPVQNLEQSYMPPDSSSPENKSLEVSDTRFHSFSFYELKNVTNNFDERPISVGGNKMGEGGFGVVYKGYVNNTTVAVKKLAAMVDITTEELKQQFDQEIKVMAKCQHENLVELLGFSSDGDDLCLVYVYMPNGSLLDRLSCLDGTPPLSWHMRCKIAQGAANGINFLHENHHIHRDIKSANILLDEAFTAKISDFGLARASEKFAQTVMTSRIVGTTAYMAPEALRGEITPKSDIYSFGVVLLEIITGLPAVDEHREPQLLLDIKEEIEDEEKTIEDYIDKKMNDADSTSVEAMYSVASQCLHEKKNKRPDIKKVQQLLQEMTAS

For CC(C)[C@@H]1COCCN1C1CC(C(=O)Nc2nc3ccc(-c4cnc(CO[C@H]5CCC[C@@H]5O)nc4)cc3s2)C1 (some centres unmarked) [b-02-34], the IC50 ([1]; THP-1, 4 h) was 116 nM and the IC50 (human IRAK-4) was 2.52 nM.

Compound O=C(Nc1nc2ccc(-c3cnc(CO[C@H]4CCC[C@@H]4O)nc3)cc2s1)C1CC(N2CCOCC(F)(F)C2)C1 (some centres unmarked) [b-02-35] has an IC50 ([1]; THP-1, 4 h) of 140 nM and an IC50 (human IRAK-4) of 2.52 nM.

CC1COCCCN1C1CC(C(=O)Nc2nc3ccc(-c4cnc(CO[C@H]5CCC[C@@H]5O)nc4)cc3s2)C1 (some centres unmarked) [b-02-36] was tested, and the IC50 ([1]; THP-1, 4 h) was 145 nM and the IC50 (human IRAK-4) was 1.82 nM.

Compound O=C(Nc1nc2ccc(-c3cnc(CO[C@H]4CCC[C@@H]4O)nc3)cc2s1)C1CC(N2CCOCC23CC3)C1 (some centres unmarked) [b-02-37] has an IC50 ([1]; THP-1, 4 h) of 94 nM and an IC50 (human IRAK-4) of 2.22 nM.

With CC(=O)N1CCN(C2CC(C(=O)Nc3nc4ccc(-c5cnc(CO[C@H]6CCC[C@@H]6O)nc5)cc4s3)C2)CC1 (some centres unmarked) [b-02-38] the IC50 ([1]; THP-1, 4 h) was 150 nM and the IC50 (human IRAK-4) was 2.98 nM.

Compound COC[C@@H]1CCN(C2CC(C(=O)Nc3nc4ccc(-c5cnc(CO[C@H]6CCC[C@@H]6O)nc5)cc4s3)C2)C1 (some centres unmarked) [b-02-39] has an IC50 ([1]; THP-1, 4 h) of 182 nM and an IC50 (human IRAK-4) of 1.9 nM.

With O=C(Nc1nc2ccc(-c3cnc(CO[C@H]4CCC[C@@H]4O)nc3)cc2s1)C1CC(N2CC[C@H](O)C2)C1 (some centres unmarked) [b-02-40] the IC50 ([1]; THP-1, 4 h) was 139 nM and the IC50 (human IRAK-4) was 1.62 nM.

CN1CCN(C2CC(C(=O)Nc3nc4ccc(-c5cnc(CO[C@H]6CCC[C@@H]6O)nc5)cc4s3)C2)CC(F)(F)C1 (some centres unmarked) [b-02-41] showed an IC50 ([1]; THP-1, 4 h) of 160 nM and an IC50 (human IRAK-4) of 2.86 nM.

Compound N#CC12CC(NC3CC(C(=O)Nc4nc5ccc(-c6cnc(CO[C@H]7CCC[C@@H]7O)nc6)cc5s4)C3)(C1)C2 (some centres unmarked) [b-02-42] has an IC50 ([1]; THP-1, 4 h) of 123 nM and an IC50 (human IRAK-4) of 1.93 nM.

Work on O=C(Nc1nc2ccc(-c3cnc(CO[C@H]4CCC[C@@H]4O)nc3)cc2s1)C1CC(N2CCC[C@@H]2C(F)(F)F)C1 (some centres unmarked) [b-02-43] yielded an IC50 ([1]; THP-1, 4 h) of 123 nM and an IC50 (human IRAK-4) of 3.1 nM.

O=C(Nc1nc2ccc(-c3cnc(CO[C@H]4CCC[C@@H]4O)nc3)cc2s1)C1CC(N2CCC[C@H]2C(F)(F)F)C1 (some centres unmarked) [b-02-44] showed an IC50 ([1]; THP-1, 4 h) of 143 nM and an IC50 (human IRAK-4) of 3.93 nM.

CC1CC(F)(F)CN1C1CC(C(=O)Nc2nc3ccc(-c4cnc(CO[C@H]5CCC[C@@H]5O)nc4)cc3s2)C1 (some centres unmarked) [b-02-46] gave an IC50 ([1]; THP-1, 4 h) of 171 nM and an IC50 (human IRAK-4) of 3.55 nM.

Compound O=C(Nc1nc2ccc(-c3cnc(CO[C@H]4CCC[C@@H]4O)nc3)cc2s1)C1CC(NC2CC2)C1 (some centres unmarked) [b-02-47] has an IC50 ([1]; THP-1, 4 h) of 110 nM and an IC50 (human IRAK-4) of 1.75 nM.

O=C(Nc1nc2ccc(-c3cnc(CO[C@H]4CCC[C@@H]4O)nc3)cc2s1)C1CC(NC2CCC2)C1 (some centres unmarked) [b-02-48] showed an IC50 ([1]; THP-1, 4 h) of 143 nM and an IC50 (human IRAK-4) of 2.03 nM.

CC12CC(NC3CC(C(=O)Nc4nc5ccc(-c6cnc(CO[C@H]7CCC[C@@H]7O)nc6)cc5s4)C3)(C1)C2 (some centres unmarked) [b-02-49] showed an IC50 ([1]; THP-1, 4 h) of 119 nM and an IC50 (human IRAK-4) of 2.52 nM.

For O=C(Nc1nc2ccc(-c3cnc(CO[C@H]4CCC[C@@H]4O)nc3)cc2s1)C1CC(NC2CCCC2)C1 (some centres unmarked) [b-02-50], the IC50 ([1]; THP-1, 4 h) was 144 nM and the IC50 (human IRAK-4) was 1.93 nM.

Work on O=C(Nc1nc2ccc(-c3cnc(CO[C@H]4CCC[C@@H]4O)nc3)cc2s1)C1CC(N2CC[C@H](OC(F)F)C2)C1 (some centres unmarked) [b-02-51] yielded an IC50 ([1]; THP-1, 4 h) of 146 nM and an IC50 (human IRAK-4) of 2.17 nM.

In the case of O=C(Nc1nc2ccc(-c3cnc(CO[C@H]4CCC[C@@H]4O)nc3)cc2s1)C1CC(NCC(F)F)C1 (some centres unmarked) [b-02-52], the IC50 ([1]; 4 hours) is reported as 176 nM and the IC50 (human IRAK-4) is reported as 2.6 nM.

In the case of CN(CC(F)F)C1CC(C(=O)Nc2nc3ccc(-c4cnc(CO[C@H]5CCC[C@@H]5O)nc4)cc3s2)C1 (some centres unmarked) [b-02-53], the IC50 ([1]; THP-1, 4 h) is reported as 172 nM and the IC50 (human IRAK-4) is reported as 2.59 nM.

In the case of O=C(Nc1nc2ccc(-c3cnc(CO[C@H]4CCC[C@@H]4O)nc3)cc2s1)C1CC(N2CCOC[C@@H]2C(F)(F)F)C1 (some centres unmarked) [b-02-54], the IC50 ([1]; THP-1, 4 h) is reported as 135 nM and the IC50 (human IRAK-4) is reported as 3.46 nM.

For O=C(Nc1nc2ccc(-c3cnc(CO[C@H]4CCC[C@@H]4O)nc3)cc2s1)C1CC(N2CCOC[C@H]2C(F)(F)F)C1 (some centres unmarked) [b-02-55], the IC50 ([1]; THP-1, 4 h) was 150 nM and the IC50 (human IRAK-4) was 2.97 nM.

O=C(Nc1nc2ccc(-c3cnc(CO[C@H]4CCC[C@@H]4O)nc3)cc2s1)C1CC(NC2(C(F)F)CC2)C1 (some centres unmarked) [b-02-56] showed an IC50 ([1]; THP-1, 4 h) of 109 nM and an IC50 (human IRAK-4) of 1.76 nM.
